Legend:
[1] = format: physicochemical
Description: In contrast, the fumarate salt of 4-bromophenyl 1,4-diazabicyclo[3.2.2]nonane-4-carboxylate crystallizes in two nonhygroscopic polymorphic forms (forms I and II). […] This property of the two polymorphic forms of the fumarate salt of 4-bromophenyl 1,4-diazabicyclo[3.2.2]nonane-4-carboxylate is an advantage in comparison with the hydrochloride salt of 4-bromophenyl 1,4-diazabicyclo[3.2.2]nonane-4-carboxylate.

[2] = Test of thermal stability in the solid state - appearance; format: physicochemical
Method: Test of thermal stability in the solid state
(§1) The base and the fumarate salt of the compound of formula (I) are analyzed after 1, 7 and 14 days of storage at: • 80° C.; • 80° C. and under 80% relative humidity (RH). Appearance
In contrast, the appearance of the fumarate salt of the compound of formula (I) remains unchanged.

[3] = Thermal stability in the solid state - quantitative determination of nondecomposed product and impurities by HPLC; format: physicochemical; details: for Sum % imp. quantified (% surf.): HPLC UV 220 nm; for Non-decomposed base / product (%): HPLC, % (w/w) of nondecomposed base
Method: as §1
Quantitative Determination of the Nondecomposed Product and Percentage of Impurities
Chromatographic Conditions
Column: Inertsil ODS 3 150×4.6 mm, 5 μm, maintained at 25° C.
Buffer pH 4.5: 0.01M KH2PO4, 0.5 g/l sodium heptanesulfonate pH adjusted to 4.5 with 1M KOH
Phase A: 90 V buffer pH 4.5
• 10 V acetonitrile Phase B: 20 V buffer pH 4.5 • 80 V acetonitrile Gradient: from 100% of phase A to 80% of phase B in 40 min Flow rate: 1.0 ml/min Detection: UV, λ=220 nm (optical path: 1 cm) Solutions injected: 0.2 mg (base or salt)/ml solutions in a mixture of 50 volumes of water and 50 volumes of acetonitrile. Comment: for the quantitative determinations, the results obtained are expressed in % (w/w) of nondecomposed base (by calibrating with nondecomposed base or salt controls stored at ambient temperature).
Comment: the sum of the impurities quantified may be less after storing at 80° C. under 80% relative humidity because impurities may decompose to give products which cannot be detected by UV or which are not separated by the analytical conditions.

[4] = Instantaneous solubility tests; format: physicochemical
Method: The instantaneous solubilities of the base and of the fumarate salt of the compound of formula (I) were determined in the following media: • water; • buffer pH 1.2: 0.01M KH2PO4, pH adjusted with orthophosphoric acid; • buffer pH 7.2: 0.2M KH2PO4, pH adjusted with KOH; • buffer pH 9.0: 0.04M Na2B4O7.10H2O, pH adjusted with boric acid; • dimethyl sulfoxide (DMSO).
Determination of the instantaneous solubilities: successive volumes of the medium are added to the test specimen until the compound has dissolved. Stirring is carried out with a vortex mixer at ambient temperature.
Information on the corresponding classification according to the European Pharmacopoeia is also given therein.

[5] = solid state, 80° C./80% RH, 1 d
[6] = solid state, 80° C./80% RH, 7 d
[7] = solid state, 80° C./80% RH, 14 d
[8] = buffer pH 1.2, ambient temperature
[9] = buffer pH 7.2, ambient temperature
[10] = buffer pH 9.0, ambient temperature

SMILES | Appearance ([2]; Initial appearance) | Appearance ([2]; solid state, 80° C., 1 d) | Appearance ([2]; solid state, 80° C., 7 d) | Appearance ([2]; solid state, 80° C., 14 d) | Appearance [2, 5] | Appearance [2, 6] | Appearance [2, 7] | Sum % imp. quantified (% surf.) ([3]; Initial) | Sum % imp. quantified (% surf.) ([3]; solid state, 80° C., 7 d) | Non-decomposed base / product (%) ([3]; solid state, 80° C., 7 d) | Sum % imp. quantified (% surf.) ([3]; solid state, 80° C., 14 d) | Non-decomposed base / product (%) ([3]; solid state, 80° C., 14 d) | Sum % imp. quantified (% surf.) [3, 6] [% surf.] | Non-decomposed base / product (%) [3, 6] [%] | Sum % imp. quantified (% surf.) [3, 7] [% surf.] | Non-decomposed base / product (%) [3, 7] [%] | Solubility classification according to the European Pharmacopoeia ([4]; DMSO) | Instantaneous solubility ([4]; DMSO, ambient temperature) | Solubility classification according to the European Pharmacopoeia ([4]; Water) | Instantaneous solubility ([4]; Water, ambient temperature) | other results
Cl.O=C(Oc1ccc(Br)cc1)N1CCN2CCC1CC2 [hydrochloride, hydrochloride salt of 4-bromophenyl 1,4-diazabicyclo[3.2.2]nonane-4-carboxylate] |  |  |  |  |  |  |  |  |  |  |  |  |  |  |  |  |  |  |  |  | Forms shown by the water sorption/desorption isotherm [1]: present in a hemihydrate form and two anhydrous forms; Stability of the water stoichiometry ([1]; under the effect of temperature or when flushing with nitrogen): has a tendency to lose its water stoichiometry
O=C(O)/C=C/C(=O)O.O=C(Oc1ccc(Br)cc1)N1CCN2CCC1CC2 [form I, fumarate salt of 4-bromophenyl 1,4-diazabicyclo[3.2.2]nonane-4-carboxylate] |  |  |  |  |  |  |  |  |  |  |  |  |  |  |  |  |  |  |  |  | Hygroscopicity of the polymorphic form [1]: nonhygroscopic; Impact of water on the crystalline form ([1]; water in the vapor or liquid form): no impact on the crystalline form
O=C(Oc1ccc(Br)cc1)N1CCN2CCC1CC2 [Base, 4-Bromophenyl 1,4-diazabicyclo[3.2.2]nonane-4-carboxylate] | Virtually white | Pale yellow | Pale yellow | Pale yellow | Yellow-brown | Brown | Brown | 4.02 | 3.57 | 100 | 3.14 | 99.9 | 4.37 | 98.7 | 4.53 | 98.3 | Soluble | ~75 g of product/l | Slightly soluble | <2 g of product/l | Solubility classification according to the European Pharmacopoeia ([4]; buffer pH 1.2): Freely soluble; Instantaneous solubility [4, 8]: 140 g of product/l; Solubility classification according to the European Pharmacopoeia ([4]; buffer pH 7.2): Slightly soluble; Instantaneous solubility [4, 9]: <2 g of product/l; Solubility classification according to the European Pharmacopoeia ([4]; buffer pH 9.0): Slightly soluble; Instantaneous solubility [4, 10]: <2 g of product/l
O=C(O)/C=C/C(=O)O.O=C(Oc1ccc(Br)cc1)N1CCN2CCC1CC2 [Fumarate, fumarate salt of 4-bromophenyl 1,4-diazabicyclo[3.2.2]nonane-4-carboxylate] | White powder | unchanged | unchanged | unchanged | unchanged | unchanged | unchanged | 0.32 | 0.60 | 99.6 | 0.53 | 100 | 0.74 | 99.7 | 0.83 | 100 | Freely soluble | ~140 g of product/l | Sparingly soluble | ~27 g of product/l | Solubility classification according to the European Pharmacopoeia ([4]; buffer pH 1.2): Sparingly soluble; Instantaneous solubility [4, 8]: ~16 g of product/l; Solubility classification according to the European Pharmacopoeia ([4]; buffer pH 7.2): Soluble; Instantaneous solubility [4, 9]: ~75 g of product/l; Solubility classification according to the European Pharmacopoeia ([4]; buffer pH 9.0): Soluble; Instantaneous solubility [4, 10]: ~68 g of product/l
